In ChEMBL document CHEMBL4483862, “Open-source discovery of chemical leads for next-generation chemoprotective antimalarials” (2018):

System: Plasmodium berghei
Assay: Luciferase/luciferin-expressing antifolate-resistant parasites were used to infect a culture of HepG2 cells that were pre-incubated with compounds. Infected hepatocytes emit light due to the luciferase reaction. Assay results are presented as the percent inhibition of light emission compared to control. […]
Format: functional
Conditions: sporozoite; for IC90: read-out: LUCIFERASE INFECTION ASSAY - IC90
[1] = read-out: LUCIFERASE INFECTION ASSAY - IC50

| Compound | IC90 [µM] | IC50 [1] [µM] | also measured |
| --- | --- | --- | --- |
| FC(F)Sc1ccc(Nc2ncnc3sccc23)cc1 | > 10 |  | IC50 (PBLUC_HILL_SLOPE 12.8, PBLUC_R_SQUARED 0.441, read-out: LUCIFERASE INFECTION ASSAY - IC50): 9.17 µM |
| CCn1c2ccccc2c2cc(NC(=O)CN3C(=O)NC4(CCCc5ccccc54)C3=O)ccc21 (stereo unspecified) | 9.72 |  | IC50 (FFLUC_HILL_SLOPE 13.4, FFLUC_R_SQUARED 0.411, HEPG2TOX_HILL_SLOPE 9.13, HEPG2TOX_R_SQUARED 0.498, PBLUC_HILL_SLOPE 3.53, PBLUC_R_SQUARED 0.448, read-out: LUCIFERASE INFECTION ASSAY - IC50): 5.21 µM |
| CCN(CC)S(=O)(=O)c1ccc(N/N=C/c2c(-c3ccccc3)[nH]c3ccccc23)nc1 | > 10 |  | IC50 (PBLUC_HILL_SLOPE 2.64, PBLUC_R_SQUARED 0.392, read-out: LUCIFERASE INFECTION ASSAY - IC50): 4.46 µM |
| CC(C)(C)c1ccc(S(=O)(=O)Nc2ccc(O)c(Sc3nc4ccccc4s3)c2)cc1 | > 10 |  | IC50 (HEPG2TOX_HILL_SLOPE 0.314, HEPG2TOX_R_SQUARED 0.616, read-out: LUCIFERASE INFECTION ASSAY - IC50): > 10 µM |
| Cc1oc(-n2cccc2)c(C#N)c1C(=O)Nc1ccn(C)n1 | > 10 | > 10 |  |
| O=C(CSCc1cccs1)Nc1nc(-c2ccccn2)cs1 | 9.38 |  | IC50 (PBLUC_HILL_SLOPE 22, PBLUC_R_SQUARED 0.337, read-out: LUCIFERASE INFECTION ASSAY - IC50): 8.49 µM |
| COC(=O)c1c(C)[nH]c(C(=O)C(C)OC(=O)c2ccccc2NS(=O)(=O)c2ccc(Br)s2)c1C (stereo unspecified) | > 10 |  | IC50 (HEPG2TOX_HILL_SLOPE 1.22, HEPG2TOX_R_SQUARED 0.375, PBLUC_HILL_SLOPE 2.55, PBLUC_R_SQUARED 0.409, read-out: LUCIFERASE INFECTION ASSAY - IC50): 7.98 µM |
| CC(=O)Nc1ccc(OCc2ccccc2C(F)(F)F)cc1 | 5.57 |  | IC50 (PBLUC_HILL_SLOPE 1.68, PBLUC_R_SQUARED 0.57, read-out: LUCIFERASE INFECTION ASSAY - IC50): 1.51 µM |
| Cc1cc(C(=O)Cn2cnc3ccc([N+](=O)[O-])cc3c2=O)c(C)n1CC1COc2ccccc2O1 (stereo unspecified) | > 10 | > 10 |  |
| Cc1ccc(NC(=O)/C(=N/N)c2c(-c3ccccc3)nc3ccccn23)c(Br)c1 | > 10 | > 10 |  |
| OC(c1cc(F)c(F)c(F)c1)c1nnc(Nc2cccc(Cl)c2)s1 (stereo unspecified) | > 10 | > 10 |  |
| COC(=O)C1=C(Nc2ccc(OS(=O)(=O)c3ccc(Cl)cc3)cc2)CSC1 | > 7.75 | > 7.75 |  |
| COc1ccc(-n2nc(C)c3c2NC(=O)CC3c2ccc(O)cc2)cc1 (stereo unspecified) | > 9.45 | > 9.45 |  |
| Cc1cc([N+](=O)[O-])cc(S(=O)(=O)N(C)Cc2ccc(C(=O)NC3CC3)cc2)c1C | 6.84 |  | IC50 (FFLUC_HILL_SLOPE 30.1, FFLUC_R_SQUARED 0.449, PBLUC_HILL_SLOPE 4.67, PBLUC_R_SQUARED 0.152, read-out: LUCIFERASE INFECTION ASSAY - IC50): 4.27 µM |
| O=C(Nc1cccc(Cl)c1)Nc1cccc(Cl)c1 | 5.51 |  | IC50 (PBLUC_HILL_SLOPE 3.72, PBLUC_R_SQUARED 0.618, read-out: LUCIFERASE INFECTION ASSAY - IC50): 3.05 µM |
| O=[N+]([O-])c1cccc(OCC(O)CN2CCN(Cc3nc(-c4ccc(Cl)cc4)no3)CC2)c1 (stereo unspecified) | > 10 |  | IC50 (HEPG2TOX_HILL_SLOPE 10.3, HEPG2TOX_R_SQUARED 0.223, PBLUC_HILL_SLOPE 2.57, PBLUC_R_SQUARED 0.732, read-out: LUCIFERASE INFECTION ASSAY - IC50): 4.59 µM |
| Cc1nc2sccn2c1C(=O)NCc1ccccc1Oc1ccccc1 | > 9.08 | > 9.08 |  |
| CC(=O)c1cccc(-c2cnc3cnc(-c4cccs4)cn23)c1 | 8.52 |  | IC50 (HEPG2TOX_HILL_SLOPE 0.197, HEPG2TOX_R_SQUARED 0.442, PBLUC_HILL_SLOPE 3.75, PBLUC_R_SQUARED 0.777, read-out: LUCIFERASE INFECTION ASSAY - IC50): 4.74 µM |
| C=CCNc1nc(-c2ccccc2)c(C(=O)OCC)cc1C#N | > 10.7 |  | IC50 (HEPG2TOX_HILL_SLOPE 2.72, HEPG2TOX_R_SQUARED 0.984, PBLUC_HILL_SLOPE 4, PBLUC_R_SQUARED 0.181, read-out: LUCIFERASE INFECTION ASSAY - IC50): 6.9 µM |
| CSc1sc(C(=O)N2CCOCC2)c2c1S(=O)(=O)N(C)c1ccccc1-2 | > 8.04 | > 8.04 |  |
| COC(=O)c1c(CSc2nnnn2C)nc2ccccc2c1-c1ccccc1 | > 10 | > 10 |  |
| CCC1CCc2sc(C(=O)NCCc3ccccn3)cc2C1 (stereo unspecified) | > 10 |  | IC50 (PBLUC_HILL_SLOPE 5.05, PBLUC_R_SQUARED 0.237, read-out: LUCIFERASE INFECTION ASSAY - IC50): 7.77 µM |

| Compound | IC90 [µM] | IC50 [1] [µM] | also measured |
| --- | --- | --- | --- |
| CC1Sc2ccc(Cl)cc2C(=O)/C1=C/c1ccc(C(F)(F)F)cc1 (stereo unspecified) | > 8.95 |  | IC50 (PBLUC_HILL_SLOPE 11.4, PBLUC_R_SQUARED 0.0512, read-out: LUCIFERASE INFECTION ASSAY - IC50): > 8.95 µM |
| Cc1nc(C(=O)N2CCc3c(c(C(=O)NC4CCCC4)nn3CC(C)C)C2)cs1 | 2.9 |  | IC50 (PBLUC_HILL_SLOPE 2.42, PBLUC_R_SQUARED 0.681, read-out: LUCIFERASE INFECTION ASSAY - IC50): 1.17 µM |
| CC(=O)Nc1cccc(-c2cn3c(-c4ccc5ncccc5c4)cnc3cn2)c1 | > 8.7 |  | IC50 (PBLUC_HILL_SLOPE 2.19, PBLUC_R_SQUARED 0.526, read-out: LUCIFERASE INFECTION ASSAY - IC50): 5.14 µM |
| COc1ccc(-c2cs/c(=N\c3ccccc3C(F)(F)F)n2/N=C/c2ccc(O)c(O)c2)cc1 | > 10 |  | IC50 (HEPG2TOX_HILL_SLOPE 0.402, HEPG2TOX_R_SQUARED 0.786, PBLUC_HILL_SLOPE 2.07, PBLUC_R_SQUARED 0.586, read-out: LUCIFERASE INFECTION ASSAY - IC50): 3.82 µM |
| COCCOc1ccc(C(F)(F)F)cc1NC(=O)c1ccc(SCc2cscn2)cc1 | > 10 |  | IC50 (PBLUC_HILL_SLOPE 14.5, PBLUC_R_SQUARED 0.0793, read-out: LUCIFERASE INFECTION ASSAY - IC50): 8.84 µM |
| Cc1cccc(OCc2nnc(SCC(=O)c3ccc4c(c3)CCC4)o2)c1 | > 10 | > 10 |  |
| OCc1ccc(-c2cn3c(-c4ccccc4)cnc3cn2)cc1 | > 11 |  | IC50 (HEPG2TOX_HILL_SLOPE 0.117, HEPG2TOX_R_SQUARED 0.27, read-out: LUCIFERASE INFECTION ASSAY - IC50): > 11 µM |
| O=c1c(Cl)c(Cl)cnn1-c1nc2ccccc2[nH]1 | 1.65 |  | IC50 (HEPG2TOX_HILL_SLOPE 2.11, HEPG2TOX_R_SQUARED 0.958, PBLUC_HILL_SLOPE 7.93, PBLUC_R_SQUARED 0.809, read-out: LUCIFERASE INFECTION ASSAY - IC50): 1.25 µM |
| Cc1ccc(NS(=O)(=O)c2ccc(C(=O)NNC(=O)COc3ccc(C#N)cc3)cc2)cc1 | > 10 | > 10 |  |
| Cc1sc2nc(-c3cccnc3)nc(NCCNc3ccccn3)c2c1C | 1.71 |  | IC50 (HEPG2TOX_HILL_SLOPE 1.88, HEPG2TOX_R_SQUARED 0.918, PBLUC_HILL_SLOPE 8.99, PBLUC_R_SQUARED 0.794, read-out: LUCIFERASE INFECTION ASSAY - IC50): 1.34 µM |
| Cc1ccc2c(c1)/C(=N/Nc1nc3ccccc3s1)C(=O)N2 | 4.93 |  | IC50 (HEPG2TOX_HILL_SLOPE 7.15, HEPG2TOX_R_SQUARED 0.815, PBLUC_HILL_SLOPE 8.39, PBLUC_R_SQUARED 0.507, read-out: LUCIFERASE INFECTION ASSAY - IC50): 3.79 µM |
| CCCN(CCC)Cc1c(O)ccc2c1O/C(=C\c1ccc(OCC)cc1)C2=O | > 8.34 |  | IC50 (HEPG2TOX_HILL_SLOPE 7.71, HEPG2TOX_R_SQUARED 0.351, PBLUC_HILL_SLOPE 26.6, PBLUC_R_SQUARED 0.241, read-out: LUCIFERASE INFECTION ASSAY - IC50): 7.9 µM |
| O=C(Nc1cc(C(F)(F)F)cc(C(F)(F)F)c1)c1csc([N+](=O)[O-])c1 | 7.1 |  | IC50 (HEPG2TOX_HILL_SLOPE 11, HEPG2TOX_R_SQUARED 0.957, PBLUC_HILL_SLOPE 1.57, PBLUC_R_SQUARED 0.511, read-out: LUCIFERASE INFECTION ASSAY - IC50): 1.75 µM |
| O=C(CSc1nc2cc(S(=O)(=O)Nc3ccccc3Cl)ccc2o1)NCc1ccccc1 | > 10 | > 10 |  |
| FC(F)(F)c1nc2ccccc2nc1N/N=C/C=C/c1ccccc1 | > 9.64 | > 9.64 |  |
| O=C1c2cc(Br)ccc2S(=O)(=O)N1CC(c1ccco1)N1CCCC1 (stereo unspecified) | > 10 | > 10 |  |
| Cc1ccc(-c2c(C)sc3[nH]c(CN(Cc4nc(=O)c5c(-c6ccc(C)cc6)c(C)sc5[nH]4)Cc4ccccc4CN4CCCC4)nc(=O)c23)cc1 | > 10 | > 10 |  |
| CNc1nc2cnc(-c3ccc(F)cc3)cc2n1Cc1ccc(OC)c(OC)c1 | 3.97 |  | IC50 (PBLUC_HILL_SLOPE 14.4, PBLUC_R_SQUARED 0.339, read-out: LUCIFERASE INFECTION ASSAY - IC50): 3.41 µM |
| CC1CCc2sc(C(=O)N/N=C/c3sc(N4CCCCC4)nc3-c3cccs3)cc2C1 (stereo unspecified) | 5.03 |  | IC50 (FFLUC_HILL_SLOPE 3.43, FFLUC_R_SQUARED 0.712, HEPG2TOX_HILL_SLOPE 2.9, HEPG2TOX_R_SQUARED 0.728, PBLUC_HILL_SLOPE 3.74, PBLUC_R_SQUARED 0.491, read-out: LUCIFERASE INFECTION ASSAY - IC50): 2.79 µM |
| CCOC(=O)c1c(NC(=O)CN(CC(C)C)C2CC2)sc(C(=O)Nc2ccc(C)cc2C)c1C | 5.26 | 4.24 |  |
| O=C(Nc1nc2ccc([N+](=O)[O-])cc2s1)c1cccc(Cl)c1 | > 10 |  | IC50 (HEPG2TOX_HILL_SLOPE 0.963, HEPG2TOX_R_SQUARED 0.986, PBLUC_HILL_SLOPE 0.779, PBLUC_R_SQUARED 0.754, read-out: LUCIFERASE INFECTION ASSAY - IC50): 0.754 µM |
